According to PubChem BioAssay (NCI):
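Protocol summary: plate cells (96-well), add compound at 5 concentrations, incubate 48 h, interpolate endpoints linearly. TGI marks complete inhibition of growth.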

Columns and labels:
Test in all cases: growth of human tumour cells (NCI), 48 h
[1] = tested on: SW-620 colon
[2] = tested on: NCI-H460 lung
[3] = tested on: HS 578T breast
[4] = tested on: HT29 colon
[5] = tested on: SR leukemia
[6] = tested on: SF-268 CNS
[7] = tested on: BT-549 breast
[8] = tested on: NCI-H23 lung
[9] = tested on: 786-0 renal
[10] = tested on: ACHN renal
[11] = tested on: MDA-MB-231 breast
[12] = tested on: A498 renal
[13] = tested on: HCC-2998 colon
[14] = tested on: TK-10 renal
[15] = tested on: IGROV1 ovarian
[16] = tested on: MDA-N
[17] = tested on: T-47D breast
[18] = tested on: SN12C renal
[19] = tested on: OVCAR-8 ovarian
[20] = tested on: U251 CNS
[21] = tested on: HCT-116 colon
[22] = tested on: COLO 205 colon
[23] = tested on: CAKI-1 renal
[24] = tested on: MCF7 breast
[25] = tested on: SF-295 CNS
[26] = tested on: HOP-92 NSCLC
[27] = tested on: SK-MEL-5 melanoma
[28] = tested on: MOLT-4 leukemia
[29] = tested on: M14 melanoma
[30] = tested on: OVCAR-3 ovarian
[31] = tested on: OVCAR-5 ovarian
[32] = tested on: A549 NSCLC
[33] = tested on: SK-MEL-28 melanoma
[34] = tested on: NCI-H522 lung
[35] = tested on: CCRF-CEM leukemia
[36] = tested on: SK-MEL-2 melanoma
[37] = tested on: SF-539 CNS
[38] = tested on: KM12 colon
[39] = tested on: UO-31 renal
[40] = tested on: UACC-257 melanoma
[41] = tested on: K-562 leukemia
[42] = tested on: HOP-62 NSCLC
[43] = tested on: NCI-H226 lung
[44] = tested on: SK-OV-3 ovarian
[45] = tested on: MDA-MB-435
[46] = tested on: DU-145 prostate
[47] = tested on: HCT-15 colon
[48] = tested on: RPMI-8226 leukemia
[49] = tested on: MALME-3M melanoma
[50] = tested on: OVCAR-4 ovarian
[51] = tested on: PC-3 prostate
[52] = tested on: SNB-75 CNS
[53] = tested on: NCI/ADR-RES ovarian
[54] = tested on: UACC-62 melanoma
[55] = tested on: RXF 393 renal
[56] = tested on: LOX IMVI melanoma
[57] = tested on: SNB-19 CNS
[58] = tested on: HL-60(TB) leukemia
[59] = tested on: EKVX NSCLC

Measured: TGI

O=C1CC(=O)NC(=NN2C(=O)CSC2C(=O)c2ccco2)N1 (stereo not given)
not listed: [56] | [57] | [58] | [59]
> 100 µM: all other assays above

O=c1[nH]c2nccn2c2c1SCCN2
not listed: [11] | [26] | [39] | [44]
> 100 µM: all other assays above
